Legend:
[1] = target: T1, von Hippel-Lindau disease tumor suppressor/SWI/SNF-related matrix-associated actin-dependent regulator of chromatin subfamily A member 2 (Homo sapiens, UniProt P51531+P40337); test: PROTAC activity at VHL/C-terminal HiBiT fused SMARCA2 in human HeLa cells assessed as induction of SMARCA2 degradation incubated for 3 hrs by Nano-Glo HiBiT analysis; assay type: cell-based
Target sequence in this assay (P51531 whole entry, the tested form may be a part): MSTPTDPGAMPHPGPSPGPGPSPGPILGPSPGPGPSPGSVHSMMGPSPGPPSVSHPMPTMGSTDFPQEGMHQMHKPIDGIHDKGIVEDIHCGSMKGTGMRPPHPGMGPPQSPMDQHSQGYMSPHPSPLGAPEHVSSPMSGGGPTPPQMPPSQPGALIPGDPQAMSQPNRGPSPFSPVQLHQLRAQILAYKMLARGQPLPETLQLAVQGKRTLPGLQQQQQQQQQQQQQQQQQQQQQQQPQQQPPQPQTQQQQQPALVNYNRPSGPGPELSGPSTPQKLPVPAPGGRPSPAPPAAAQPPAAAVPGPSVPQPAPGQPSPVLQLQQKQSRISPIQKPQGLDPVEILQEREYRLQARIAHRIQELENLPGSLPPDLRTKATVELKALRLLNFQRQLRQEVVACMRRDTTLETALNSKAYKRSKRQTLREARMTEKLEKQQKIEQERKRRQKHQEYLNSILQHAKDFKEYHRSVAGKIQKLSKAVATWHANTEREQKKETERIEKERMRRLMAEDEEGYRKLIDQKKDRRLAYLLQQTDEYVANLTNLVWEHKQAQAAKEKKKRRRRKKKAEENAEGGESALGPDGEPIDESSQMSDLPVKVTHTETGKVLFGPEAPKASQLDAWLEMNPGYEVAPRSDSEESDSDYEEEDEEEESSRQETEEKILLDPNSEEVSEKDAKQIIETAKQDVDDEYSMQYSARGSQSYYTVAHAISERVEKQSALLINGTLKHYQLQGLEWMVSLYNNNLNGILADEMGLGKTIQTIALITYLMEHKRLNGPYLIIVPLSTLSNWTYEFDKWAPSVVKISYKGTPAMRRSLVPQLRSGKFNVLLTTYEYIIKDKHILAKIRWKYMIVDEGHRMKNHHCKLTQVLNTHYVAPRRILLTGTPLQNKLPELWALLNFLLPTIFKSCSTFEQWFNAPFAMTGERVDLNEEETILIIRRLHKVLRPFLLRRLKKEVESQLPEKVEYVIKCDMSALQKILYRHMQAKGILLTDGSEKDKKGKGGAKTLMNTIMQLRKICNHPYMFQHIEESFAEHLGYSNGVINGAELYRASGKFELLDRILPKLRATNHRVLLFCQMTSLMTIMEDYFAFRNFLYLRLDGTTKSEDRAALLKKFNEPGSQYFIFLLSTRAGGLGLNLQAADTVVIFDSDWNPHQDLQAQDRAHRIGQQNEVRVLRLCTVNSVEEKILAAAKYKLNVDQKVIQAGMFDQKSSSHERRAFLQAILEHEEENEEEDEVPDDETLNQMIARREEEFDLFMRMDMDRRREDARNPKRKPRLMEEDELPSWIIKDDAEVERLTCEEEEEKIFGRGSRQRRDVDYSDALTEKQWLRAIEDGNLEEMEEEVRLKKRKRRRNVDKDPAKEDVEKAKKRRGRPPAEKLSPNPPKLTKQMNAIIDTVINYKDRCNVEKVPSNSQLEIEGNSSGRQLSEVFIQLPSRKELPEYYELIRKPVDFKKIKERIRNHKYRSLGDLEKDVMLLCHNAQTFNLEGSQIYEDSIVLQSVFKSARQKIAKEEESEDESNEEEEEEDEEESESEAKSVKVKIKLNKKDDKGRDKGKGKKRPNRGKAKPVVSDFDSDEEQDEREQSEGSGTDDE
Target sequence in this assay (P40337 whole entry, the tested form may be a part): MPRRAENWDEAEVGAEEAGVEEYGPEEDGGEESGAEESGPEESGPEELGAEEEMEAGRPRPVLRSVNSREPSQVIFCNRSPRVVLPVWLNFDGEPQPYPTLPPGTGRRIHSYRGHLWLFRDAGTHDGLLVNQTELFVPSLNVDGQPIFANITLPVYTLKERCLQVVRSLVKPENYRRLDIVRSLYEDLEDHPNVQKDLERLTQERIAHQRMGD

[2] = target: T1, von Hippel-Lindau disease tumor suppressor/SWI/SNF-related matrix-associated actin-dependent regulator of chromatin subfamily A member 2; test: In vivo PROTAC activity at VHL/SMARCA2 in SCID mouse xenografted with human MV4-11 cells assessed as reduction of SMARCA2 level in tumor at 50 mg/kg, iv administered as single dose measured after 48 hrs by Western blotting analysis; assay type: ADME, organism-based; parameters: scale not given: the % may be the effect or the level left
Target sequence in this assay (P51531 whole entry, the tested form may be a part): as the sequence (P51531 whole entry, the tested form may be a part) above
Target sequence in this assay (P40337 whole entry, the tested form may be a part): as the sequence (P40337 whole entry, the tested form may be a part) above

[3] = target: T1, von Hippel-Lindau disease tumor suppressor/SWI/SNF-related matrix-associated actin-dependent regulator of chromatin subfamily A member 2; test: In vivo PROTAC activity at VHL/SMARCA2 in SCID mouse xenografted with human NCI-H838 cells assessed as remaining activity in tumor at 50 mg/kg, iv administered as single dose measured after 24 hrs by Western blotting analysis (reference value: 100 +/- 7% ); assay type: functional, organism-based
Target sequence in this assay (P40337 whole entry, looked up, the tested form may be a part): as the sequence (P40337 whole entry, the tested form may be a part) above
Target sequence in this assay (P51531 whole entry, looked up, the tested form may be a part): as the sequence (P51531 whole entry, the tested form may be a part) above

[4] = target: T1, von Hippel-Lindau disease tumor suppressor/SWI/SNF-related matrix-associated actin-dependent regulator of chromatin subfamily A member 2; test: In vivo PROTAC activity at VHL/SMARCA2 in SCID mouse xenografted with human NCI-H838 cells assessed as remaining activity in tumor at 50 mg/kg, iv administered as single dose measured after 3 hrs by Western blotting analysis (reference value: 100 +/- 7% ); assay type: functional, organism-based
Target sequence in this assay (P40337 whole entry, looked up, the tested form may be a part): as the sequence (P40337 whole entry, the tested form may be a part) above
Target sequence in this assay (P51531 whole entry, looked up, the tested form may be a part): as the sequence (P51531 whole entry, the tested form may be a part) above

NCI-H1975 = test: Antiproliferative activity against human NCI-H1975 cells expressing wild-type SMARCA2 assessed as cell growth inhibition measured after 7 days by WST-8 assay; assay type: functional; conditions: NCI-H1975, 168 h, time 7 day
[5] = target: T1, von Hippel-Lindau disease tumor suppressor/SWI/SNF-related matrix-associated actin-dependent regulator of chromatin subfamily A member 2; test: PROTAC activity at VHL/C-terminal HiBiT fused SMARCA2 in human HeLa cells assessed as induction of SMARCA2 degradation by measuring maximal efficacy at 0.0001 to 1 uM incubated for 24 hrs by Nano-Glo HiBiT analysis relative to control; assay type: cell-based; conditions: dose 0.0001-1 µM
Target sequence in this assay (P40337 whole entry, looked up, the tested form may be a part): as the sequence (P40337 whole entry, the tested form may be a part) above
Target sequence in this assay (P51531 whole entry, looked up, the tested form may be a part): as the sequence (P51531 whole entry, the tested form may be a part) above

NCI-H1793 = test: Antiproliferative activity against SMARCA4-deficient human NCI-H1793 cells assessed as cell growth inhibition measured after 7 days by WST-8 assay; assay type: functional; conditions: NCI-H1793, 168 h, time 7 day
[6] = target: T1, von Hippel-Lindau disease tumor suppressor/SWI/SNF-related matrix-associated actin-dependent regulator of chromatin subfamily A member 2; test: In vivo PROTAC activity at VHL/SMARCA2 in SCID mouse xenografted with human NCI-H838 cells assessed as remaining activity in tumor at 50 mg/kg, iv administered as single dose measured after 96 hrs by Western blotting analysis (reference value: 100 +/- 7% ); assay type: functional, organism-based
Target sequence in this assay (P40337 whole entry, looked up, the tested form may be a part): as the sequence (P40337 whole entry, the tested form may be a part) above
Target sequence in this assay (P51531 whole entry, looked up, the tested form may be a part): as the sequence (P51531 whole entry, the tested form may be a part) above

[7] = target: T1, von Hippel-Lindau disease tumor suppressor/SWI/SNF-related matrix-associated actin-dependent regulator of chromatin subfamily A member 2; test: In vivo PROTAC activity at VHL/SMARCA2 in SCID mouse xenografted with human MV4-11 cells assessed as remaining activity in tumor at 50 mg/kg, iv administered as single dose measured after 72 hrs by Western blotting analysis (reference value: 100 +/- 15 % ); assay type: ADME, organism-based
Target sequence in this assay (P51531 whole entry, the tested form may be a part): as above
Target sequence in this assay (P40337 whole entry, the tested form may be a part): as the sequence (P40337 whole entry, the tested form may be a part) above

SK-MEL-5 [8] = test: Antitumor activity against SMARCA4-deficient human SK-MEL-5 cells xenografted in SCID mouse assessed as tumor growth inhibition at 50 mg/kg, iv administered twice a week measured after 32 days relative to control; assay type: functional; conditions: SK-MEL-5, 768 h, time 32 day, read-out: TGI
[9] = target: T1, von Hippel-Lindau disease tumor suppressor/SWI/SNF-related matrix-associated actin-dependent regulator of chromatin subfamily A member 2; test: In vivo PROTAC activity at VHL/SMARCA2 in SCID mouse xenografted with human NCI-H838 cells assessed as reduction of SMARCA2 level in tumor at 50 mg/kg, iv administered as single dose measured after 48 hrs by Western blotting analysis; assay type: functional, organism-based; parameters: scale not given: the % may be the effect or the level left
Target sequence in this assay (P40337 whole entry, looked up, the tested form may be a part): as the sequence (P40337 whole entry, the tested form may be a part) above
Target sequence in this assay (P51531 whole entry, looked up, the tested form may be a part): as the sequence (P51531 whole entry, the tested form may be a part) above

[10] = target: T2, von Hippel-Lindau disease tumor suppressor/SWI/SNF-related matrix-associated actin-dependent regulator of chromatin subfamily A member 4 (Homo sapiens, UniProt P51532+P40337); test: In vivo PROTAC activity at VHL/SMARCA4 in SCID mouse xenografted with human MV4-11 cells assessed as remaining activity in tumor at 50 mg/kg, iv administered as single dose measured after 2 hrs by Western blotting analysis (reference value: 100 +/- 15 % ); assay type: ADME, organism-based
SK-MEL-28 = test: Antiproliferative activity against human SK-MEL-28 cells expressing wild-type SMARCA2 assessed as cell growth inhibition measured after 7 days by WST-8 assay; assay type: functional; conditions: SK-MEL-28, 168 h, time 7 day
NCI-H1693 [11] = test: Antiproliferative activity against SMARCA4-deficient human NCI-H1693 cells assessed as cell growth inhibition by measuring maximal efficacy measured after 7 days by WST-8 assay relative to control; assay type: functional; conditions: time 7 day
A549 = test: Antiproliferative activity against SMARCA4-deficient human A549 cells assessed as cell growth inhibition by measuring maximal efficacy measured after 7 days by WST-8 assay relative to control; assay type: functional; conditions: time 7 day
NCI-H838 [12] = test: Antiproliferative activity against SMARCA4-deficient human NCI-H838 cells assessed as cell growth inhibition measured after 7 days by WST-8 assay; assay type: functional; conditions: NCI-H838, 168 h, time 7 day
NCI-H838 [13] = test: Antitumor activity against SMARCA4-deficient human NCI-H838 cells xenografted in SCID mouse assessed as tumor growth inhibition at 50 mg/kg, iv administered twice a week measured after 3 weeks relative to control; assay type: functional; conditions: NCI-H838, 504 h, read-out: TGI
[14] = target: T2, von Hippel-Lindau disease tumor suppressor/SWI/SNF-related matrix-associated actin-dependent regulator of chromatin subfamily A member 4; test: PROTAC activity at VHL/C-terminal HiBiT fused SMARCA4 in human HeLa cells assessed as induction of SMARCA4 degradation by measuring maximal efficacy incubated for 24 hrs by Nano-Glo HiBiT analysis relative to control; assay type: cell-based
[15] = target: T1, von Hippel-Lindau disease tumor suppressor/SWI/SNF-related matrix-associated actin-dependent regulator of chromatin subfamily A member 2; test: In vivo PROTAC activity at VHL/SMARCA2 in SCID mouse xenografted with human MV4-11 cells assessed as remaining activity in tumor at 50 mg/kg, iv administered as single dose measured after 6 hrs by Western blotting analysis (reference value: 100 +/- 15 % ); assay type: ADME, organism-based
Target sequence in this assay (P51531 whole entry, the tested form may be a part): as above
Target sequence in this assay (P40337 whole entry, the tested form may be a part): as the sequence (P40337 whole entry, the tested form may be a part) above

[16] = target: T1, von Hippel-Lindau disease tumor suppressor/SWI/SNF-related matrix-associated actin-dependent regulator of chromatin subfamily A member 2; test: PROTAC activity at VHL/C-terminal HiBiT fused SMARCA2 in human HeLa cells assessed as induction of SMARCA2 degradation incubated for 1 hr by Nano-Glo HiBiT analysis; assay type: cell-based
Target sequence in this assay (P51531 whole entry, the tested form may be a part): as the sequence (P51531 whole entry, the tested form may be a part) above
Target sequence in this assay (P40337 whole entry, the tested form may be a part): as the sequence (P40337 whole entry, the tested form may be a part) above

NCI-H1693 [17] = test: Antiproliferative activity against SMARCA4-deficient human NCI-H1693 cells assessed as cell growth inhibition measured after 7 days by WST-8 assay; assay type: functional; conditions: NCI-H1693, 168 h, time 7 day
[18] = target: T2, von Hippel-Lindau disease tumor suppressor/SWI/SNF-related matrix-associated actin-dependent regulator of chromatin subfamily A member 4; test: PROTAC activity at VHL/C-terminal HiBiT fused SMARCA4 in human HeLa cells assessed as induction of SMARCA4 degradation incubated for 6 hrs by Nano-Glo HiBiT analysis; assay type: cell-based
[19] = target: T1, von Hippel-Lindau disease tumor suppressor/SWI/SNF-related matrix-associated actin-dependent regulator of chromatin subfamily A member 2; test: PROTAC activity at VHL/C-terminal HiBiT fused SMARCA2 in human HeLa cells assessed as induction of SMARCA2 degradation incubated for 24 hrs by Nano-Glo HiBiT analysis; assay type: cell-based
Target sequence in this assay (P51531 whole entry, the tested form may be a part): as the sequence (P51531 whole entry, the tested form may be a part) above
Target sequence in this assay (P40337 whole entry, the tested form may be a part): as the sequence (P40337 whole entry, the tested form may be a part) above

SK-MEL-5 [20] = test: Antiproliferative activity against SMARCA4-deficient human SK-MEL-5 cells assessed as cell growth inhibition by measuring maximal efficacy measured after 7 days by WST-8 assay relative to control; assay type: functional; conditions: time 7 day
NCI-H1944 = test: Antiproliferative activity against SMARCA4-deficient human NCI-H1944 cells assessed as cell growth inhibition measured after 7 days by WST-8 assay; assay type: functional; conditions: NCI-H1944, 168 h, time 7 day
[21] = target: T2, von Hippel-Lindau disease tumor suppressor/SWI/SNF-related matrix-associated actin-dependent regulator of chromatin subfamily A member 4; test: In vivo PROTAC activity at VHL/SMARCA4 in SCID mouse xenografted with human MV4-11 cells assessed as reduction of SMARCA4 level in tumor at 50 mg/kg, iv administered as single dose measured after 96 hrs by Western blotting analysis; assay type: ADME, organism-based; parameters: scale not given: the % may be the effect or the level left

DC50 [1]: 63 nM | Activity [2]: 83% | Activity [3]: 9% | Activity [4]: 30% | GI50 (NCI-H1975): > 10000 nM | Emax [5]: 90% | GI50 (NCI-H1793): 21 nM | Activity [6]: 33% | Activity [7]: 44% | Activity [9]: 75% | Activity [10]: 93% | GI50 (SK-MEL-28): > 10000 nM | GI50 (NCI-H838 [12]): 119 nM | Emax [14]: 44% | Activity [15]: 30% | DC50 [16]: 250 nM | GI50 (NCI-H1693 [17]): 15 nM | DC50 [18]: > 3300 nM | DC50 [19]: 10 nM | GI50 (NCI-H1944): 30 nM | Activity [21]: 16%
SMILES: Cc1ncsc1-c1ccc([C@H](C)NC(=O)[C@@H]2C[C@@H](O)CN2C(=O)[C@@H](NC(=O)[C@H]2CC[C@H](CN3CC4(CCC(n5cc(-c6cc(-c7ccccc7O)nnc6N)cn5)CC4)C3)CC2)C(C)(C)C)cc1
inhibition in vivo at 50 mg/kg (SK-MEL-5 [8]): 74% | Imax (NCI-H1693 [11]): 79% | Imax (A549): 51% | inhibition in vivo at 50 mg/kg (NCI-H838 [13]): 81% | Imax (SK-MEL-5 [20]): 95%

Reference: ChEMBL document CHEMBL5325488, “Discovery of SMD-3040 as a Potent and Selective SMARCA2 PROTAC Degrader with Strong in vivo Antitumor Activity” (J Med Chem, 2023)
